According to patent US20260294874A1, “COMPOSITIONS COMPRISING MODULATORS OF RIBONUCLEOPROTEIN GRANULE FORMATION AND DISSOLUTION AND METHODS OF USE THEREOF” (University of Virginia Patent Foundation, priority 2023, published 2026):
pEC50: −log10 of the molar value. Entries after “also recorded” stand apart in the source; their conditions may differ.

Assays:
Type in all cases: cell-based
[1] = system: Tyr and Lys sites of HeLa and HEK293T proteomes; assay: Proteome-wide competitive ABPP SILAC LC-MS/MS chemical proteomics of liganded Tyr/Lys sites; details: glucose-deprived HEK293T cells, 25 μM, 2 h
Experimental: (§1) Preparation of SILAC proteomes for LC-MS/MS analysis. SILAC cell proteomes were fractionated to collect the supernatant and normalized to 2.3 mg/mL in PBS. ‘Heavy’ and ‘light’ proteomes were aliquoted (427 μL) and probe-modified proteins were conjugated to desthiobiotin-PEG-3-azide using copper-catalyze azide-alkyne cycloaddition, trypsinized into peptides using Trypsin/Lys-C Mix (Catalog No. V5071; Promega Corporation, Madison, Wisconsin, United States of America), enriched using PIERCE™ Avidin Agarose brand beads (Catalog No. 20219; Thermo Fisher Scientific Inc., Waltham, Massachusetts. United States of America), and prepared for nano-electrospray ionization-LC-MS/MS analysis as previously described in Hahm et al., 2020.
(§2) Data Analysis—Chemical Proteomics. Identification and analysis of peptides and proteins using LC-MS was accomplished using bioinformatics software and quality control parameter protocols as previously described in Hahm et al., 2020.
We performed quantitative liquid-chromatography tandem mass spectrometry (LC-MS/MS) chemical proteomic studies to identify the target protein and binding site(s) of SuTEx fragments with RNP granule modulating activity. […]
(§3) We detected ~8,700 probe-modified sites (Tyr and Lys) in our aggregate HeLa and HEK293T chemical proteomic analyses. […]

G3BP1 Y40 = target: T1, G3BP1 Y40 (Homo sapiens, UniProt Q13283); assay: Competitive ABPP SILAC LC-MS/MS chemical proteomics, G3BP1 Y40; details: stressed HeLa cells, 25 μM, 2 h
T1 construct: liganded site Y40 in NTF2 domain
Experimental: as §1, §2
We performed quantitative liquid-chromatography tandem mass spectrometry (LC-MS/MS) chemical proteomic studies to identify the target protein and binding site(s) of SuTEx fragments with RNP granule modulating activity. […] SILAC light and heavy cells (HEK293T and HeLa) were treated with experimental conditions used for phenotypic screening including the SuTEx ligand pretreatment (25 μM, 2 h) followed by PB (glucose-deprivation, 15 min) and SG induction (75 μM [COMPOUND LEFT OUT], 30 min). Afterwards, cells were lysed, soluble proteomes treated with HHS-465 SuTEx probe (100 μM, 1 h), a global Tyr/Lys-reactive probe used previously for RNP granule investigations (Ciancone et al., 2022), and samples processed to probe-modified peptides for LC-MS/MS analysis as previously reported (Huang et al., 2021), shown in FIG. 10.
as §3

[2] = system: stress granules (α-G3BP1) in HeLa cells; assay: Dose-dependent inhibition of induced stress granules in HeLa cells by immunofluorescence; details: 2 h
Experimental: FIGS. 15A-15C. […] (FIG. 15B) Box and whisker plot of the number of SGs per cell from immunofluorescence images of G3BP1+SuTEx fragment ligand treatments in [COMPOUND LEFT OUT]-stressed cells from FIG. 15A (“x” indicates the mean; the center line is the median). […] A two-sample Student's t-test was performed for statistical comparison. (FIG. 15C) The average number of SGs per cell from FIG. 15B was plotted as a function of HHS-166 concentrations from cellular treatments to estimate the EC50 (~8 μM) for [COMPOUND LEFT OUT]-induced SG inhibition in situ. Data shown are representative of n=2 biologically independent replicates.
Immunofluorescence. Immunofluorescence (IF) of HEK293T cells was performed as previously described in Ciancone et al., 2022. HeLa cells were seeded at 9.0×10^4 in a 24-well plate with 12-mm glass coverslips. The next day, the cells were treated with 25 μM SuTEx probe for 2 hours in DMEM medium without FBS. The cells were then treated with 75 μM NaAsO2 for 30 minutes and fixed with 3% paraformaldehyde in PBS for 15 minutes at room temperature (RT) and washed with PBS twice. The fixed cells were permeabilized with PBST (0.1% Triton X-100) for 15 minutes at room temperature and blocked with 5% goat serum in PBST for 30 minutes at RT. The cells were incubated with anti-G3BP1 antibody H-10 (Catalog No. sc-365338 at 1:200 dilution; Santa Cruz Biotechnology, Inc., Dallas, Texas, United States of America) for 2 hours at RT and washed with PBST (0.1% Tween-20) for 5 minutes three times. Next, cells were incubated with goat anti-mouse Alexa 594 antibody (Catalog No. 115-585-003 at 1:800 dilution; Jackson ImmunoResearch, West Grove, Pennsylvania, United States of America) for 30 minutes at RT. […] A CellProfiler pipeline was developed to quantify the number of stress granules under each condition. Briefly, cells were recognized as blue^+ (nuclei) red^+ (G3BP1) objects, and the red^+ granules that meet the shape and size threshold were identified and counted. Cells on the border of linages were excluded from the analysis for more accurate quantification.

T1 sequence (Q13283 whole entry, the tested form may be a part): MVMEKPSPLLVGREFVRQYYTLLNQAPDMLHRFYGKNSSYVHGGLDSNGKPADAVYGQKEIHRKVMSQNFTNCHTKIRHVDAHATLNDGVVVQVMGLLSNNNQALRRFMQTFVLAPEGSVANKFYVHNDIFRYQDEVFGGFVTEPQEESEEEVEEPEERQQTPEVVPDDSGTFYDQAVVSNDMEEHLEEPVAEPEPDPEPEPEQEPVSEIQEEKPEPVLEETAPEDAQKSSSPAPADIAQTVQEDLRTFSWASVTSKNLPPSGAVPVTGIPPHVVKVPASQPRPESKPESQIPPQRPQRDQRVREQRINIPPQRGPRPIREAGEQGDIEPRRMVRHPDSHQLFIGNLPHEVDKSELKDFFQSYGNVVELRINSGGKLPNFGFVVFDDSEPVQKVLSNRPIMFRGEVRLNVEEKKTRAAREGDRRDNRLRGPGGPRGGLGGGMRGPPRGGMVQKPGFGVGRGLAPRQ

| Structure (SMILES) | number of reproducibly liganded sites in addition to EDC3 Y475 [1] | liganding of G3BP1 Y40 (in words) (G3BP1 Y40) | SILAC ratio (SR), G3BP1 Y40 (G3BP1 Y40; HHS-465 100 μM, DMSO (light)/ligand (heavy)) | dose dependence of SG inhibition (in words) ([2]; 1-25 μM) | pEC50 ([2]; Homo sapiens, in situ, 1-25 μM, n=2, read-out: EC50 for induced SG inhibition) | minimal effective concentration ([2]; Homo sapiens, p<0.001, read-out: concentration giving statistically significant decrease in SG formation) [µM] |
| --- | --- | --- | --- | --- | --- | --- |
| COc1ccc(S(=O)(=O)n2cc(CS(C)(=O)=O)nn2)cc1 [AHL-030, 1-((4-Methoxyphenyl)sulfonyl)-4-((methylsulfonyl)methyl)-1H-1,2,3-triazole] | 7 | – | – | – | – | – |
| N#Cc1ccc(S(=O)(=O)n2cc(-c3cccc(Cl)c3)nn2)cc1 [EKT231, 4-((4-(3-Chlorophenyl)-1H-1,2,3-triazol-1-yl)sulfonyl)benzonitrile] | – | lack of binding activity | – | – | – | – |
| COc1ccc(S(=O)(=O)n2cc(C3CCCCC3)nn2)cc1 [HHS-166, 4-Cyclohexyl-1-((4-methoxyphenyl)sulfonyl)-111-1,2,3-triazole] | – | liganded G3BP1 Y40; also recorded: liganded site (Y40) | > 2 | dose-dependent inhibition; also recorded: dose-dependent effects on SG formation | 5.10 | ≥ 12.5 |
